PMC2362229 (British Journal of Cancer, 1999)

Experiments:
[1] = target: T1, bile salt export pump (BSEP) (Rattus norvegicus, UniProt O70127); assay: ATP-dependent [3H]taurocholate transport in rat hepatocyte canalicular membrane vesicles; type: biochemical; conditions: TC 5 M; 0.5% fetal calf serum; read-out: inhibition by 50% of ATP-dependent BSEP, [3H]taurocholate as substrate (IC50)
T1 construct: Membrane fractions enriched in the hepatocyte canalicular membrane domain were prepared and characterized from rat and human liver; from tissue; host or cells: liver of male Wistar rats: canalicular membrane vesicles (A8) or the liver in vivo (A13)
T1 sequence (O70127 1-1321): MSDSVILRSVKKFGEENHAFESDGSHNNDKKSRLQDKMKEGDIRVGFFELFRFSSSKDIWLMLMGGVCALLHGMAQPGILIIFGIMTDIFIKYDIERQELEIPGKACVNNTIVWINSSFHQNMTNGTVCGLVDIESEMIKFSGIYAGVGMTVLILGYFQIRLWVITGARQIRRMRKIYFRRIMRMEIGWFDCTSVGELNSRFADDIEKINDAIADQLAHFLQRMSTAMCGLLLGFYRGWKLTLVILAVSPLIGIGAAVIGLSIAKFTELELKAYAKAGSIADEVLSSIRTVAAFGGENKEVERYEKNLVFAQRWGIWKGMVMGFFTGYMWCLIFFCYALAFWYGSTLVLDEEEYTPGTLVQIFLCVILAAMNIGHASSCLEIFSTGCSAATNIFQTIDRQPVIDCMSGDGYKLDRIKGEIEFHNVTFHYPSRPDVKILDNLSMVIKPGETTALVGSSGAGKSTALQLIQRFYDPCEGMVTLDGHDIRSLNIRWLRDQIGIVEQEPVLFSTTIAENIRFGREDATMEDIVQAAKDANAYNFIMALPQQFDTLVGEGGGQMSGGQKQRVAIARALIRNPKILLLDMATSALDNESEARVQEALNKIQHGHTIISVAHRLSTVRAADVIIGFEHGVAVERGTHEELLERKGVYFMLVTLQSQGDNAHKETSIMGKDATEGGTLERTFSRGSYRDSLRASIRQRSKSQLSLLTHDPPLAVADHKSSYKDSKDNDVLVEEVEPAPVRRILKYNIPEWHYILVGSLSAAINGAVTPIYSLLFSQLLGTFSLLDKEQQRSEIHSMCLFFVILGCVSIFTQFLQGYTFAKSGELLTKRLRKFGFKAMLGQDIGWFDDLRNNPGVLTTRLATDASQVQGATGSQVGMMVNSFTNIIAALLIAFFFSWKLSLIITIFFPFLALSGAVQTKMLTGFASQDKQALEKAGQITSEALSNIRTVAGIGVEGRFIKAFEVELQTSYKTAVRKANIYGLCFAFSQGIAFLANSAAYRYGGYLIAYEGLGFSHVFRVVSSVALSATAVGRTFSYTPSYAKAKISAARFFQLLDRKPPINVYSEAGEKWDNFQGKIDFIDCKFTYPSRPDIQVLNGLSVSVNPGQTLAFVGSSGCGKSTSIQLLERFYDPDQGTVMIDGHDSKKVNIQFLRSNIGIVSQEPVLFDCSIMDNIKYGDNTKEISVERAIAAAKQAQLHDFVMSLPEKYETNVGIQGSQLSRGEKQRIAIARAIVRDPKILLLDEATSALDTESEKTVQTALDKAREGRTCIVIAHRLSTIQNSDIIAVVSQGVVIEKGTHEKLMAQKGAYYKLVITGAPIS

[2] = target: T2, Mdr1 P-gp (Rattus norvegicus, UniProt P43245); assay: ATP-dependent [14C]doxorubicin transport in rat hepatocyte canalicular membrane vesicles; type: biochemical; conditions: read-out: half-maximal inhibition of [14C]doxorubicin transport (IC50)
T2 construct: Membrane fractions enriched in the hepatocyte canalicular membrane domain were prepared and characterized from rat and human liver; from tissue; host or cells: rat liver canalicular membrane vesicles

[3] = target: T3, Mdr1b P-gp (Rattus norvegicus, UniProt P43245); assay: ATP-dependent [3H]daunorubicin transport into rat hepatocyte canalicular membrane vesicles
[4] = target: T4, recombinant rat Mdr1b P-gp (Rattus norvegicus, UniProt P43245); assay: Photoaffinity labelling with [3H]azidopine, membranes of recombinant mdr1b-BV-infected Sf9 cells; type: binding; conditions: […] GG918
T4 construct: made in house; host or cells: Sf9 insect cells, recombinant baculovirus (mdr1b-BV)

[5] = target: T2, Mdr1 P-gp; assay: ATP-dependent N-pentyl-[3H]quinidinium transport in rat hepatocyte canalicular membrane vesicles; type: biochemical
[6] = target: T5, BSEP (Rattus norvegicus, UniProt O70127); assay: In vivo elimination of [3H]taurocholate into bile; conditions: GG918 4 mol kg1 body weight
T5 construct: Membrane fractions enriched in the hepatocyte canalicular membrane domain were prepared and characterized from rat and human liver; from tissue; host or cells: liver of male Wistar rats: canalicular membrane vesicles (A8) or the liver in vivo (A13)
T5 sequence (O70127 1-1321): T1 sequence (O70127 1-1321)

[7] = target: T6, conjugate export pump MRP2 (Rattus norvegicus, UniProt Q63120); assay: ATP-dependent [3H]LTC4 transport in rat hepatocyte canalicular membrane vesicles; type: biochemical; conditions: LTC4 50 nM; not significantly inhibited up to 20 µM
T6 construct: Membrane fractions enriched in the hepatocyte canalicular membrane domain were prepared and characterized from rat and human liver; from tissue; host or cells: liver of male Wistar rats: canalicular membrane vesicles (A7) or the liver in vivo (A12)

[8] = target: T6, conjugate export pump MRP2; assay: In vivo elimination of N-[3H]acetyl-LTE4 into bile; conditions: GG918 4 mol kg1
[9] = target: T3, Mdr1b P-gp; assay: In vivo elimination of [14C]doxorubicin into bile; parameters: from tissue; host or cells: liver of male Wistar rats: the liver in the living animal (A10, A11); conditions: GG918 14 mol kg1; 60 min
[10] = target: T7, rat P-gp (145 kDa protein) (Rattus norvegicus, UniProt P43245); assay: Photoaffinity labelling with [3H]azidopine, rat canalicular membranes; type: binding
T7 construct: Membrane fractions enriched in the hepatocyte canalicular membrane domain were prepared and characterized from rat and human liver; from tissue; host or cells: rat liver canalicular membrane vesicles

[11] = tested on: MDR1 P-glycoprotein; assay: in vitro; conditions: Wistar (rat), human
[12] = Bile flow in bile duct-cannulated rats; type: in vivo, rat; conditions: GG918 4 mol kg1 body weight i.v.

T7 sequence (P43245 whole entry, the tested form may be a part): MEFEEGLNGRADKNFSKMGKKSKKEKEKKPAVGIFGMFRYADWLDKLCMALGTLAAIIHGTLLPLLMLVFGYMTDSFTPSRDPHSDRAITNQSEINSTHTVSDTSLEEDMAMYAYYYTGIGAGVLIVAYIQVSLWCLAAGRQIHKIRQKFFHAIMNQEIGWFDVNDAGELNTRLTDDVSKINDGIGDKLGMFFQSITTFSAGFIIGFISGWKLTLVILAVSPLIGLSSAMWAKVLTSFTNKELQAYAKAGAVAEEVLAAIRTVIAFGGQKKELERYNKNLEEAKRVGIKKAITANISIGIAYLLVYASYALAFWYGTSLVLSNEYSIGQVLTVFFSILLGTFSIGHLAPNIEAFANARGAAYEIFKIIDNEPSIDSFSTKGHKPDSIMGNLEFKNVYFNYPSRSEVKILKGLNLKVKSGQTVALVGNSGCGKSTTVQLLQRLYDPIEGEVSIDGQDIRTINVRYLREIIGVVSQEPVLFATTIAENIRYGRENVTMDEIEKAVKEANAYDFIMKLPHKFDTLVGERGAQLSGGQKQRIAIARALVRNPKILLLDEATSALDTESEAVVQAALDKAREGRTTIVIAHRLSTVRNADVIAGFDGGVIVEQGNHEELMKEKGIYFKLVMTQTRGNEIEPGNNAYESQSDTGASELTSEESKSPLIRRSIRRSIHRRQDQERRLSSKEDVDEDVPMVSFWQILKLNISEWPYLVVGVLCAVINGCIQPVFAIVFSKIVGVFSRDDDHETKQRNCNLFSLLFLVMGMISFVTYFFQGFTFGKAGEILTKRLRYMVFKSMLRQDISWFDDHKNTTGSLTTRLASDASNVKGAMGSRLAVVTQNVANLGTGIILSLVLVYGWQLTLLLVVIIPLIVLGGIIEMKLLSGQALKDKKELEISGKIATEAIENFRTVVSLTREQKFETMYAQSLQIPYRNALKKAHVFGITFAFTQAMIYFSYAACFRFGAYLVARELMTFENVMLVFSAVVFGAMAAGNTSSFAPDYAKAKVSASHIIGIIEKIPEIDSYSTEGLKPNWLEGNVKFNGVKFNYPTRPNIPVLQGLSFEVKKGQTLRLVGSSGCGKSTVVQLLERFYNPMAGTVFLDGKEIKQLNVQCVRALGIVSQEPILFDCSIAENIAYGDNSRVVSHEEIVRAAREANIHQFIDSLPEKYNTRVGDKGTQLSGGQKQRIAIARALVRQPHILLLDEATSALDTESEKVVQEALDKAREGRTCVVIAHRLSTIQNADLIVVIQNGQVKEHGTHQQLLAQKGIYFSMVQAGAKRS
T2 sequence (P43245 whole entry, the tested form may be a part): as above
T3 sequence (P43245 whole entry): as the sequence (P43245 whole entry, the tested form may be a part) above
T4 sequence (P43245 whole entry): as the sequence (P43245 whole entry, the tested form may be a part) above

| IC50 [2] [µM] | Ki [3] [µM] | IC50 ([3]; IC50 Dau (Figure 7), DAU 20 M, Figure 7 inset) [µM] | IC50 ([3]; half-maximal inhibition of [3H]daunorubicin transport, [3H]daunorubicin 20 M, 0.5% fetal calf serum) [µM] | manner of inhibition of [3H]daunorubicin transport ([3]; rat canalicular inside-out vesicles, 30 nM GG918) | reduction of [3H]azidopine incorporation into the Mdr1b protein [4] [%] | suppression of ATP-dependent transport of N-pentyl-[3H]quinidinium ([5]; 10 nM GG918) [%] | suppression of ATP-dependent transport of N-pentyl-[3H]quinidinium ([5]; 100 nM GG918) [%] | IC50 ([5]; rat hepatocyte canalicular membranes, substrate 1 M, read-out: half-maximal inhibition of N-pentyl-[3H]quinidinium transport (IC50)) [µM] | IC50 [7] [µM] | inhibition of N-[3H]acetyl-LTE4 secretion [8] | [14C]doxorubicin elimination suppressed to (% of untreated) [9] [%] | reduction of [3H]azidopine labelling of rat P-gp ([10]; 40 µM GG918) [%] | reduction of [3H]azidopine labelling of rat P-gp ([10]; 10 M GG918) [%] | concentration for potent competition with [3H]azidopine photoaffinity labelling versus concentration for potent inhibition of substrate transport by Mdr1b P-gp ([10]; fold higher) | IC50 [11] [µM] | Vmax of ATP-dependent daunorubicin transport ([3]; Lineweaver-Burk plots, rat canalicular vesicles) [pmol mg1 min1] | Compound | IC50 [1] [µM] | effect on biliary excretion of [3H]taurocholate [6] | bile flow [12] |
| --- | --- | --- | --- | --- | --- | --- | --- | --- | --- | --- | --- | --- | --- | --- | --- | --- | --- | --- | --- | --- |
| 0.08 | 0.035 | 0.02 | ~0.02 | competitive | 80 | 42 | 98 | 0.008 | > 20 | No significant inhibition | 27 | 78 | 38 | at least 100 fold | 0.008 to 0.08 | – | COc1cc2c(cc1OC)CN(CCc1ccc(NC(=O)c3cccc4c(=O)c5cccc(OC)c5[nH]c34)cc1)CC2 [GG918, N-{4-[2-(1,2,3,4-tetrahydro-6,7-dimethoxy-2-isoquinolinyl)-ethyl]-phenyl}-9,10-dihydro-5-methoxy-9-oxo-4-acridine carboxamide] | ~3 | did not affect | not affected |
| – | – | – | – | – | – | – | – | – | – | – | – | – | – | – | – | 721 | COc1cccc2c1C(=O)c1c(O)c3c(c(O)c1C2=O)C[C@@](O)(C(C)=O)C[C@@H]3O[C@H]1C[C@H](N)[C@H](O)[C@H](C)O1 [daunorubicin] | – | – | – |
